# Values joined by “and” are separate entries in the source; they are usually repeats but may differ in a detail not shown here. Identical values can stand only once.
# Test system: P. falciparum 3D7 growth, pLDH absorbance
# Assay: P. falciparum 3D7 growth inhibition, dose response, strain 3D7 (AID 2305)
row,SMILES,IC50
1,Cc1ncccc1C(=O)Nc1cccc(-c2cccc(-c3nc4ccc(C(F)(F)F)cc4[nH]3)c2)c1,600 nM
2,O=C(Nc1ccc(OC2CCN(Cc3ccc(F)cc3)CC2)c(Cl)c1)c1ccccc1,790 nM
3,CC(C)Cc1nc2nc(N)nc(N)c2cc1C(C)C,230 nM
4,CCCCCCCN1CC[C@@H](CCCc2ccnc3ccc(OCCN4CCOCC4)cc23)[C@@H](CC)C1,910 nM
5,CCN(CCCN1CCCCC1)c1nc(C)cc(Nc2ccc(Cl)cc2)n1,840 nM
6,Cc1ccc(CN2CCCN(Cc3cccc(C(=O)Nc4ccc(C(C)(C)C)cc4)c3)CC2)s1,1130 nM
7,COc1cc(CNCCCNc2cc(=O)c3ccccc3[nH]2)c2c(c1)C(C)CN2C(=O)OC(C)(C)C (centres undefined),730 nM
8,COc1cc(Nc2nccc(Nc3ccc4c(C)[nH]nc4c3)n2)cc2ccccc12,700 nM
9,Cc1nc2nc(N)nc(N)c2c(C)c1Cc1cccc(C#N)c1,920 nM
10,Cc1ccc(CC(C)NCC(O)c2cccc([N+](=O)[O-])c2)cc1 (centres undefined),760 nM
11,O=C(Nc1cccc(-c2ccc(-c3nc4ccccc4[nH]3)cc2)c1)Nc1ccc2c(c1)OCO2,670 nM
12,CCOc1ccc2nc3cc(NC(=O)c4ccco4)ccc3c(N)c2c1,800 nM
13,COc1cc(Cc2cnc3nc(N)nc(N)c3c2C)cc(OC)c1OC,60 nM
14,Cc1nc(N)nc(N)c1-c1ccc(Br)cc1,230 nM
15,CCCC(C)NC(=O)C(N)Cc1cccc(I)c1 (centres undefined),980 nM
16,CCCNC(=O)C1Cc2cc(OC)c(OC)cc2C2(N1)C(=O)N(Cc1cccc(OC)c1)c1ccccc12 (centres undefined),860 nM
17,CCNc1cc(C(=O)N[C@@H](Cc2ccccc2)[C@H](O)CNCc2cc(OC)cc(OC)c2)cc(N2CCCS2(=O)=O)c1,40 nM
18,CC(=O)Nc1ccc(CN(C)C2CCN(c3cc(NC(=O)c4cccc(C)c4)ccn3)CC2)cc1,900 nM
19,N#Cc1cccc(C(=O)N2CCOC(CCN3CCC(c4ccccc4)CC3)(c3ccc(Cl)c(Cl)c3)C2)c1 (centres undefined),1040 nM
20,O=C(Cn1c(CCc2cccc(F)c2F)cc(=O)c2ccccc21)N(CCN1CCCC1)Cc1ccc(-c2ccc(C(F)(F)F)cc2)cc1,860 nM
21,CCOc1cc(C)ccc1NC1CCN(CCCCNC(=O)c2ccc(NC(=O)c3ccc(Cl)cc3)cc2)CC1,710 nM
22,O=C(Nc1ccc(Cl)c(Cl)c1)Nc1ccc2c(c1)CCNCC2,530 nM
23,Cn1c(=N)n(CC(=O)OCc2ccc(OCc3ccccc3)cc2)c2ccccc21,80 nM
24,Fc1ccccc1COc1ccc(Nc2ncnc3ccc(I)cc23)cc1Cl,930 nM
25,COc1ccc2nccc(N3CCC(NCCNS(=O)(=O)c4ccc5c(c4)NC(=O)CS5)C3)c2n1 (centres undefined),900 nM

row,SMILES,IC50
1,O=c1[nH]ccc2nc(N[C@@H]3CCNC3)nc(Nc3cc(Cl)cc(Cl)c3)c12,740 nM
2,O=[N+]([O-])c1ccc(Nc2nc(NN=Cc3cccc(O)c3)nc(N3CCCC3)n2)cc1,1080 nM
3,Clc1nc(Cl)c2c(ccn2Cc2ccccc2)n1,790 nM
4,CN1CCN(c2cc3c(cc2Cl)CCN3C(=O)Cc2ccc(Cl)c(NC(=O)Nc3cccc(C#N)c3)c2)CC1,640 nM
5,COC(=O)c1ccc(CC(C)NCC(O)c2ccccc2Cl)cc1 (centres undefined),1010 nM
6,CCCC[C@@H](C(=O)NCCc1ccc(Cl)cc1)N1C(=O)CCC1C(=O)Nc1ccc(Cl)c(Cl)c1 (some centres undefined),870 nM
7,Cc1ccccc1C1CCN(C2CCC(NC(=O)/C=C/c3cc(C(F)(F)F)ccc3F)CC2)CC1 (centres undefined),840 nM
8,Cc1ccc(C)c(C=CC(=O)NC2CCC(CN3CCC(c4c[nH]c5ccccc45)CC3)CC2)c1 (centres undefined),760 nM and 700 nM
9,N#CC(CC(=O)c1ccc(Cl)cc1)c1cccc(F)c1 (centres undefined),850 nM
10,COc1ccc(CNC2CCN(C)CC2)cc1-c1ccc(S(=O)(=O)NCCc2ccccn2)s1,620 nM
11,O=C(/C=C/c1ccc(Cl)c(Cl)c1)NCCCCCN1CCC(c2[nH]nc(-c3ccccc3)c2Br)CC1,720 nM
12,COc1ccc(C2CC(c3ccccc3)=NN2C(=O)c2ccc(Br)o2)cc1 (centres undefined),320 nM
13,COc1ccc(CCN(C)CCCCNC(=O)c2ccc(NC(=O)c3ccc(Cl)cc3)cc2)c(OC)c1,920 nM
14,CON=Cc1sc(CNCCCNc2cc(=O)c3ccccc3[nH]2)c(C)c1Br,960 nM
15,CS(=O)(=O)CCNCc1ccc(-c2ccc3c(Nc4ccc(Oc5ccccn5)cc4)ccnc3c2)o1,710 nM
16,COc1ccc2nc(C)cc(NN=Cc3ccc(F)cc3)c2c1,190 nM
17,CCNC(=O)Nc1ccc(-c2cnc(N)c(-c3nc4ccc(OC)cc4[nH]3)c2)cc1,500 nM
18,Cc1[nH]nc2cc(Nc3ccnc(Nc4cccc(CN5CCOCC5)c4)n3)ccc12,1580 nM
19,COc1ccc(-c2ccc(NC(=O)c3cccs3)cc2)cc1CN1CCCN(C)CC1,960 nM
20,CC(C)Cc1ccc(N2CCN(CCCCNC(=O)c3ccc(NC(=O)c4ccc(Cl)c(Cl)c4)cc3)CC2)cc1,1200 nM
21,COc1ccc2c(c1)[nH]c1c(/C=C/c3ccc([N+](=O)[O-])cc3)nccc12,860 nM
22,Cc1cc(N2CCCC2)nc(Nc2ccc(NC(=O)c3ccc(Br)o3)cc2)n1,620 nM
23,O=C(Cc1ccccc1)NC(CCN1CCC(O)(c2cccc(C(F)(F)F)c2)CC1)c1ccc(Cl)c(Cl)c1 (centres undefined),860 nM
24,O=C(Cc1ccccc1)NC1CCN(c2ccnc3cc(Cl)ccc23)C1 (centres undefined),800 nM
25,Nc1cccc(CNCc2ccc(-c3ccc(-c4nc5ccccc5[nH]4)s3)cc2)c1,570 nM

row,SMILES,IC50
1,CN(C)CCCOc1ccc(CCCCc2ccc(Cl)cc2C(=O)c2ccccc2)cc1,1030 nM
2,CCCN(CCC)S(=O)(=O)c1ccc(C(=O)N2CCC(C(=O)OCC)CC2)cc1,800 nM
3,Cc1cccc2[nH]c(-c3ccc(-c4ccc(CNCCNC(=O)c5ccnn5C)cc4)s3)nc12,310 nM
4,Cc1cc(-c2ccc3c(c2)CCN(CCC2CCC(NC(=O)/C=C/c4ccc(F)cc4)CC2)CC3)on1 (centres undefined),720 nM
5,COc1cccc(C(=O)[C@H]2C[C@@H]2CN(C)CC(O)c2cc(C)c(OC)cc2C)c1 (some centres undefined),1140 nM
6,Clc1ccc(-c2nc3ccc(-c4ccc5nc(-c6ccc(Cl)cc6)[nH]c5c4)cc3[nH]2)cc1,240 nM
7,CC(C)c1ccc(CN2CCC(NC(=O)c3ccc(-c4cccc(F)c4)s3)CC2)cc1,1330 nM
8,C=CC[C@@H](C(=O)OCC)[C@@H]1[C@@H](N(CC=C)C(=O)OC(C)(C)C)CCN1C(=O)OCc1ccccc1,960 nM
9,COc1nc(N)ncc1C(=O)NC1CN2CCC1CC2 (centres undefined),240 nM
10,COc1cccc(CN2CCCC(OC(c3ccc(F)cc3)c3ccc(F)cc3)C2)c1O (centres undefined),790 nM
11,CS(=O)(=O)N(CC(O)Cn1c2ccc(Cl)cc2c2cc(Cl)ccc21)c1ccccc1 (centres undefined),900 nM
12,Cc1ccccc1OCCCN1CCN(CC(c2ccc(F)cc2)N2CCN(C(C)C)CC2)CC1 (centres undefined),1410 nM
13,CCCCCCCCOc1c(OCC)cc(Cc2cnc(N)nc2N)cc1OCC,1530 nM
14,CC1CC(C)CN(CC(O)CNC(=O)Nc2ccc(Br)cc2)C1 (centres undefined),1050 nM
15,CCCN(C(=O)c1ccccc1C)c1nnc(-c2cccc(C)c2)s1,900 nM
16,CN1CCCC1CCNCc1cccc(-c2cnc(N(C)C3CCCCC3)nc2)c1 (centres undefined),850 nM
17,O[C@@H](c1ccccc1)[C@@H]1CN(Cc2ccccc2)CC[C@@]1(O)c1ccccc1,850 nM
18,CCOC(=O)C(NC(=O)c1ccc([N+](=O)[O-])o1)C(C)C (centres undefined),1060 nM
19,O=c1cc(NCCCN(Cc2cc3c(Cl)cc(Cl)cc3[nH]2)Cc2cc3c(Cl)cc(Cl)cc3[nH]2)[nH]c2ccccc12,120 nM
20,CCNc1cc(-c2cccc(OC)c2)nc(Nc2ccc(F)cc2)n1,1270 nM
21,CCN(CC)c1ccc(C(c2ccc(N(CC)CC)cc2)c2ccc([N+](=O)[O-])cc2)cc1,950 nM
22,COc1ccc(C(=O)Nc2ccc(Cl)cc2C(=O)Nc2ccncc2)cc1,820 nM
23,CN1CCC(c2nc(N)no2)C1 (centres undefined),980 nM
24,O=C(CCC(=O)c1ccc2c3c(cccc13)CC2)NC1CCC(CN2CCC(c3c[nH]c4ccccc34)CC2)CC1 (centres undefined),920 nM
25,COc1ccc2nc(-c3ccc(C(=O)NCCCN4CCN(c5cc(Cl)ccc5OC)CC4)cc3OC)[nH]c2c1,870 nM

row,SMILES,IC50
1,CN(C)CCCNCc1ccc(-c2ccc(CNCCc3ccccc3)cc2)cc1,990 nM
2,CNC(=O)c1ccc2[nH]cc(C3CCN(CC4CCC(NC(=O)/C=C/c5ccc(Cl)c(Cl)c5)CC4)CC3)c2c1 (centres undefined),1010 nM
3,COc1cc2c(cc1O)[C@@H]1[C@H](O)[C@@H](O)C=C3CCN(C2)[C@H]31,990 nM
4,CC(=O)N(C)/N=C/[C@H](CCc1ccccc1)NC(=O)[C@H](CC(C)C)NC(=O)c1cccc(OCCN2CCOCC2)c1,330 nM
5,O[C@@H](c1ccccc1)[C@@H]1CN(CCc2ccccc2)CC[C@@]1(O)c1ccccc1,1040 nM
6,COc1ccc2ncc(F)c(CCN3C[C@H](CNCc4nc5c(cc4Cl)OCC(=O)N5)[C@H](O)C3)c2n1,950 nM and 1280 nM and 830 nM
7,Clc1ccc2c(NN=Cc3ccccc3)ccnc2c1,760 nM
8,CC(C)c1ccc(CN2CCC(NC(=O)c3ccc(-c4cccc(Cl)c4)s3)CC2)cc1,1430 nM
9,Oc1cccc(CCNCCCCCCNCCc2ccc(Cl)cc2)c1,770 nM
10,Cn1c2ccccc2c2c3ccccc3c(CNC(CO)(CO)CO)cc21,520 nM
11,Cc1cccc(CCNC(=O)c2cc(Br)cc(N3CCN(c4ccncc4)CC3)c2)c1,870 nM
12,CCCCCCC(C)c1cc(O)c2c(c1)OC(=O)CC2(CC)c1ccccn1 (centres undefined),330 nM
13,COC(=O)c1ccc(NC(=O)Nc2cccc(CCNCc3ccccc3)c2)cc1,870 nM
14,COc1ccc(-c2cc(C(=O)N[C@@H](CC3CCCCC3)C(=O)NCCN3CCCCC3)ccc2O)cc1,950 nM
15,Cc1cccc2[nH]cc(C3CCN(CC4CCC(NC(=O)/C=C/c5ccc(Cl)c(Cl)c5)CC4)CC3)c12 (centres undefined),160 nM
16,CNC(=O)COc1cc(C)c(C2CCN(CCCCNC(=O)c3ccc(-c4ccc(C(F)(F)F)cc4)cc3)CC2)cc1C,870 nM
17,CC(C)(C)Oc1ccc(NC(=O)c2ccccc2O)cc1,1010 nM
18,NC1=NC2(CCCCC2)N(OCCCCCCC2CCCCC2)C(N)=N1,360 nM
19,CC(C)N(Cc1cnc2nc(N)nc(N)c2n1)c1ccc(Cl)c(Cl)c1,160 nM
20,NC(N)=Nc1nc(CCCCCCCCc2csc(N=C(N)N)n2)cs1,600 nM
21,COCCNCc1cccc(-c2ccccc2CN(C(=O)c2ccc3c(c2)OCO3)c2ccc(OC)cc2)c1,1110 nM
22,N=c1c2c(n(Cc3cccc(Cl)c3)c3c1CCC3)CCCC2,190 nM
23,N#Cc1ccccc1N1CCN(C2CCC(NC(=O)c3n[nH]c4cc(C(F)(F)F)ccc34)CC2)CC1 (centres undefined),1370 nM
24,CN(CCN)Cc1ccc(-c2ccc(-c3nc4ccc(C(F)(F)F)cc4[nH]3)s2)cc1,610 nM
